In PubChem BioAssay (NCI):
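GI50 marks 50% less growth. TGI marks complete inhibition of growth.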

Legend:
Experiment in all cases: DTP human tumour cell line panel, 384-well format
[1] = tested on: HCC-2998 colon
[2] = tested on: DU-145 prostate
[3] = tested on: SW-620 colon
[4] = tested on: MALME-3M melanoma
[5] = tested on: SK-OV-3 ovarian
[6] = tested on: ACHN renal
[7] = tested on: CAKI-1 renal
[8] = tested on: LOX IMVI melanoma
[9] = tested on: COLO 205 colon
[10] = tested on: NCI/ADR-RES ovarian
[11] = tested on: OVCAR-3 ovarian
[12] = tested on: A549 NSCLC
[13] = tested on: K-562 leukemia
[14] = tested on: HOP-92 NSCLC
[15] = tested on: NCI-H23 lung
[16] = tested on: SR leukemia
[17] = tested on: HS 578T breast
[18] = tested on: HL-60(TB) leukemia
[19] = tested on: UACC-257 melanoma
[20] = tested on: SK-MEL-28 melanoma
[21] = tested on: SK-MEL-5 melanoma
[22] = tested on: MDA-MB-231 breast
[23] = tested on: NCI-H226 lung
[24] = tested on: IGROV1 ovarian
[25] = tested on: MDA-MB-468 breast
[26] = tested on: PC-3 prostate
[27] = tested on: OVCAR-4 ovarian
[28] = tested on: NCI-H460 NSCLC
[29] = tested on: HT29 colon
[30] = tested on: NCI-H522 lung
[31] = tested on: HCT-116 colon
[32] = tested on: RXF 393 renal
[33] = tested on: TK-10 renal
[34] = tested on: UACC-62 melanoma
[35] = tested on: MOLT-4 leukemia
[36] = tested on: RPMI-8226 leukemia
[37] = tested on: SN12C renal
[38] = tested on: UO-31 renal
[39] = tested on: HOP-62 NSCLC
[40] = tested on: OVCAR-8 ovarian
[41] = tested on: KM12 colon
[42] = tested on: SK-MEL-2 melanoma
[43] = tested on: HCT-15 colon
[44] = tested on: M14 melanoma
[45] = tested on: NCI-H322M lung
[46] = tested on: A498 renal
[47] = tested on: EKVX NSCLC
[48] = tested on: MDA-MB-435 melanoma
[49] = tested on: BT-549 breast
[50] = tested on: 786-0 renal
[51] = tested on: CCRF-CEM leukemia
[52] = tested on: MCF7 breast
[53] = tested on: U251 glioblastoma
[54] = tested on: OVCAR-5 ovarian
[55] = tested on: T-47D breast

## CO[C@@]12[C@H](COC(N)=O)C3=C(C(=O)C(C)=C(N)C3=O)N1C[C@@H]1N[C@@H]12
[1]
  GI50: 236 nM
  TGI: 1380 nM
[2]
  GI50: 44.7 nM
  TGI: 208 nM
[3]
  GI50: 145 nM
  TGI: 1850 nM
[4]
  GI50: 576 nM
  TGI: 1960 nM
[5]
  GI50: 137 nM
  TGI: 770 nM
[6]
  GI50: 169 nM
  TGI: 844 nM
[7]
  GI50: 226 nM
  TGI: 1640 nM
[8]
  GI50: 159 nM
  TGI: 1300 nM
[9]
  GI50: 250 nM
  TGI: 1890 nM
[10]
  GI50: 5.8 µM
  TGI: > 43 µM
[11]
  GI50: 1320 nM
  TGI: 3.77 µM
[12]
  GI50: 92.9 nM
  TGI: 1060 nM
[13]
  GI50: 914 nM
  TGI: 2830 nM
[14]
  GI50: 1850 nM
  TGI: 6.78 µM
[15]
  GI50: 46 nM
  TGI: 162 nM
[16]
  GI50: 13.5 nM
  TGI: 28.1 nM
[17]
  GI50: 3.26 µM
  TGI: 7.5 µM
[18]
  GI50: 17.8 nM
  TGI: 41 nM
[19]
  GI50: 914 nM
  TGI: 2950 nM
[20]
  GI50: 1240 nM
  TGI: 5.21 µM
[21]
  GI50: 40.5 nM
  TGI: 102 nM
[22]
  GI50: 4.01 µM
  TGI: 10.7 µM
[23]
  GI50: 553 nM
  TGI: 3.25 µM
[24]
  GI50: 1030 nM
  TGI: 2630 nM
[25]
  GI50: 71.8 nM
  TGI: 212 nM
[26]
  GI50: 2340 nM
  TGI: 9.94 µM
[27]
  GI50: 2270 nM
  TGI: 5.23 µM
[28]
  TGI: 110 nM
[29]
  GI50: 368 nM
  TGI: 2250 nM
[30]
  GI50: 276 nM
  TGI: 1370 nM
[31]
  GI50: 82.3 nM
  TGI: 1360 nM
[32]
  GI50: 1600 nM
  TGI: 3.19 µM
[33]
  GI50: 1720 nM
  TGI: 13.1 µM
[34]
  GI50: 100 nM
  TGI: 1150 nM
[35]
  GI50: 16.8 nM
  TGI: 31.1 nM
[36]
  GI50: 161 nM
  TGI: 675 nM
[37]
  GI50: 98.9 nM
  TGI: 3.16 µM
[38]
  GI50: 1130 nM
  TGI: 4.71 µM
[39]
  GI50: 38.7 nM
  TGI: 213 nM
[40]
  GI50: 439 nM
  TGI: 4.6 µM
[41]
  GI50: 582 nM
  TGI: 3.6 µM
[42]
  GI50: 1250 nM
  TGI: 2680 nM
[43]
  GI50: 328 nM
  TGI: 2170 nM
[44]
  GI50: 97.4 nM
  TGI: 1190 nM
[45]
  GI50: 401 nM
  TGI: 1450 nM
[46]
  GI50: 179 nM
  TGI: 932 nM
[47]
  GI50: 4.52 µM
  TGI: 11.5 µM
[48]
  GI50: 1710 nM
  TGI: 8.72 µM
[49]
  GI50: 258 nM
  TGI: 1890 nM
[50]
  GI50: 261 nM
  TGI: 3.69 µM
[51]
  GI50: 108 nM
  TGI: 257 nM
[52]
  GI50: 94.7 nM
  TGI: 2870 nM
[53]
  GI50: 111 nM
  TGI: 1500 nM
[54]
  GI50: 1120 nM
  TGI: 4.35 µM
[55]
  GI50: 1600 nM
  TGI: 11.2 µM
